Converted amounts (≈) assume the structure as drawn.
Legend:
[1] = system: Mycobacterium tuberculosis; assay: microbe, parasite or virus in culture; conditions: 120 h
[2] = system: Mycobacterium tuberculosis; type: functional; conditions: H37Rv, 120 h

SMILES	MIC [1]	MIC [2]
CC1COC2(CCN(c3nc(=O)c4cc(C(F)(F)F)cc([N+](=O)[O-])c4s3)CC2)O1 (centres undefined)	0.01 µM (≈ 0.00431 µg/mL)	–
COCCN(C1CCN(Cc2c(-c3ccccc3)[nH]c3c(C)cccc23)C1)S(C)(=O)=O (centres undefined)	1.6 µM (≈ 0.707 µg/mL)	0.8 µM (≈ 0.353 µg/mL)
O=S(=O)(NC1CCN(Cc2ccncc2)CC1)c1ccc(-n2cccn2)cc1	1.6 µM (≈ 0.636 µg/mL)	3.3 µM (≈ 1.31 µg/mL)
Cc1cc(-n2cccn2)ccc1S(=O)(=O)NC1CCN(Cc2ccncc2)CC1	–	0.8 µM (≈ 0.329 µg/mL)
Cc1cccc2c(CN3CCC(NS(C)(=O)=O)C3)c(-c3ccccc3)[nH]c12 (racemic)	–	1.6 µM (≈ 0.614 µg/mL)
NNC(=O)c1ccncc1 [ISONIAZID]	0.5 µM (≈ 0.0686 µg/mL)	–
CO[C@H]1/C=C/O[C@@]2(C)Oc3c(C)c(O)c4c(O)c(c(/C=N/N5CCN(C)CC5)c(O)c4c3C2=O)NC(=O)/C(C)=C\C=C\[C@H](C)[C@H](O)[C@@H](C)[C@@H](O)[C@@H](C)[C@H](OC(C)=O)[C@@H]1C [RIFAMPIN]	12.5 µM (≈ 10.3 µg/mL)	–
